Data: ChEMBL document CHEMBL1125153, “Structure-activity correlations for psychotomimetics. 1. Phenylalkylamines: electronic, volume, and hydrophobicity parameters” (1990)

Key:
Assay type in all cases: functional
Homo sapiens [1] = organism: Homo sapiens; test: Log value of hallucinogenic activity was determined
Homo sapiens [2] = organism: Homo sapiens; test: Hallucinogenic activity i.e; ratio of effective dose of mescaline to the effective dose in human
Rattus norvegicus = test: Effective dose in rats trained on 1 mg/kg DOM.

SMILES | Log activity (Homo sapiens [1]) | Activity (Homo sapiens [2]) [MU] | ED50 (Rattus norvegicus) [mg/kg]
CCOc1cc(CCN)cc(OCC)c1OCC | -0.301 | <1 | –
CCCOc1c(OC)cc(CCN)cc1OC | 0.778 | 6 | –
CCCCOc1c(OC)cc(CCN)cc1OC | 0.301 | 2 | –
CCCSc1c(OC)cc(CCN)cc1OC | 1.204 | 16 | –
CCc1cc(OC)c(CCN)cc1OC | 1.255 | 18 | –
CCOc1cc(CCN)cc(OCC)c1SCC | -0.301 | <1 | –
CC(N)Cc1ccc2c(c1)OCO2 (stereo not drawn) [TENAMFETAMINE] | 0.477 | 3 | 1.68
CCOc1c(OC)cc(CCN)cc1SCC | 0.301 | 2 | –
COc1cc(CC(C)N)c(OC)c(OC)c1OC (stereo not drawn) | 0.778 | 6 | –
COc1ccc(CC(C)N)c(OC)c1OC (stereo not drawn) | 0.301 | 2 | 7.8
COc1ccc(OC)c(CC(C)N)c1 (stereo not drawn) | 0.903 | 8 | 5.51
COc1ccc2c(c1CC(C)N)OCO2 (stereo not drawn) | 1 | 10 | –
CCOc1cc(CCN)cc(OCC)c1SC | -0.301 | <1 | –
CCCOc1cc(CCN)cc(OC)c1OC | -0.301 | <1 | –
COc1cc(CCN)cc(OC)c1SC | 1.079 | 12 | –
CCOc1cc(CCN)cc(OC)c1SCC | 0.602 | 4 | –
COc1ccc(CCN)cc1OC | -1 | <0.2 | –
CCCOc1cc(OC)c(CC(C)N)cc1OC (stereo not drawn) | 1.301 | 20 | –
COc1cc(CC(C)N)cc(OC)c1OC (stereo not drawn) | 0.301 | 2 | 6.34
COc1ccc(CC(C)N)cc1 (stereo not drawn) [PARA-METHOXYAMPHETAMINE] | 0.699 | 5 | –
CCOc1cc(CCN)cc(SCC)c1OC | -0.301 | <1 | –

SMILES | Log activity (Homo sapiens [1]) | Activity (Homo sapiens [2]) [MU] | ED50 (Rattus norvegicus) [mg/kg]
CCCc1cc(OC)c(CC(C)N)cc1OC (stereo not drawn) | 1.903 | 80 | 0.17
CCOc1cc(CCN)cc(OC)c1OC | 0 | 1 | –
COc1cc(CC(C)N)c(OC)c(OC)c1 (stereo not drawn) | 0.602 | 4 | 16.5
CCOc1cc(CCN)cc(OCC)c1OC | -0.301 | <1 | –
COc1ccc(CCN)c(OC)c1OC | -0.301 | <1 | –
COc1cc(CC(C)N)cc2c1OCO2 (stereo not drawn) | 0.431 | 2.7 | 3.66
COc1cc(OC)c(CC(C)N)c(OC)c1 (stereo not drawn) | 1 | 10 | 3.69
CCSc1cc(CCN)cc(OC)c1OC | 0.778 | 6 | –
COc1cc(CC(C)N)cc(C)c1OCc1ccccc1 (stereo not drawn) | 0.301 | 2 | –
CCOc1cc(CCN)cc(OC)c1SC | 0.602 | 4 | –
CCOc1c(OC)cc(CCN)cc1OC | 0.845 | 7 | –
CCOc1cc(CCN)cc(SCC)c1OCC | -0.301 | <1 | –
COc1cc(CCN)cc(SC)c1OC | 0.778 | 6 | –
COc1c(CC(C)N)cc2c(c1OC)OCO2 (stereo not drawn) | 0.699 | 5 | –
COc1cc(CC(C)N)c(OC)c2c1OCO2 (stereo not drawn) | 1.079 | 12 | –
COc1cc(SC)c(OC)cc1CC(C)N (stereo not drawn) | 1.602 | 40 | –
CCSc1c(OC)cc(CCN)cc1OC | 1.301 | 20 | –
CCCCc1cc(OC)c(CC(C)N)cc1OC (stereo not drawn) | 1.602 | 40 | 0.91
CCOc1c(OC)cc(CCN)cc1SC | 0.778 | 6 | –
CCOc1cc(OC)c(CC(C)N)cc1OC (stereo not drawn) | 1.301 | 20 | –
COc1cc(OC)c(OC)cc1CC(C)N (stereo not drawn) | 1.301 | 20 | –

SMILES | Log activity (Homo sapiens [1]) | Activity (Homo sapiens [2]) [MU] | ED50 (Rattus norvegicus) [mg/kg]
COc1ccc(CCN)cc1 | -0.301 | <1 | –
COc1cc(CC(C)N)c(OC)cc1C (stereo not drawn) [DOM] | 1.903 | 80 | 0.44
COc1cc(OC)c(OC)cc1CCN | -0.301 | <1 | –
CCOc1cc(CCN)cc(OC)c1OCC | 0.176 | 1.5 | –
CCCCSc1c(OC)cc(CCN)cc1OC | 0.477 | 3 | –
CCCCCc1cc(OC)c(CC(C)N)cc1OC (stereo not drawn) | 1 | 10 | –
COc1cc(CC(C)N)c(OC)cc1CC(C)C (stereo not drawn) | 1.301 | 20 | –
COc1ccc(CC(C)N)c(OC)c1 (stereo not drawn) | 0.699 | 5 | 4.88
COc1c(CC(C)N)ccc2c1OCO2 (stereo not drawn) | 1 | 10 | –
COc1ccc(CC(C)N)c2c1OCO2 (stereo not drawn) | 0.477 | 3 | –
NCCc1ccc2c(c1)OCO2 | 0 | 1 | –
COc1cc(SC(C)C)c(OC)cc1CC(C)N (stereo not drawn) | 1.602 | 40 | –
COc1ccc(CC(C)N)cc1OC (stereo not drawn) | -0.301 | 0.5 | –
CCOc1cc(CCN)cc(SC)c1OC | -0.301 | <1 | –
COc1cc(CCN)cc(OC)c1OC [MESCALINE] | 0 | 1 | 14.6
COc1cc2c(cc1CC(C)N)OCO2 (stereo not drawn) | 1 | 10 | –
CCOc1cc(CCN)cc(SC)c1OCC | 0.301 | 2 | –
CCc1cc(OC)c(CC(C)N)cc1OC (stereo not drawn) | 2 | 100 | 0.23
COc1ccc(OC)c(OC)c1CC(C)N (stereo not drawn) | 1 | 10 | –
COc1cc(CCN)c(OC)cc1C | 1.301 | 20 | 1.31
